Measurements reported in PubChem BioAssay (NCI).
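Compound exposure: 48 hours, 5 concentrations, 96-well plates. TGI denotes the concentration required for complete inhibition of growth.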

What was measured:
Assay in all cases: inhibition of tumour cell growth, NCI panel, 48 h
MALME-3M melanoma = system: MALME-3M melanoma
OVCAR-5 ovarian = system: OVCAR-5 ovarian
SK-MEL-2 melanoma = system: SK-MEL-2 melanoma
NCI-H226 lung = system: NCI-H226 lung
SN12C renal = system: SN12C renal
OVCAR-4 ovarian = system: OVCAR-4 ovarian
CCRF-CEM leukemia = system: CCRF-CEM leukemia
RPMI-8226 leukemia = system: RPMI-8226 leukemia
HCT-116 colon = system: HCT-116 colon
NCI-H23 lung = system: NCI-H23 lung
M14 melanoma = system: M14 melanoma
OVCAR-8 ovarian = system: OVCAR-8 ovarian
HOP-62 NSCLC = system: HOP-62 NSCLC
UACC-62 melanoma = system: UACC-62 melanoma
HOP-92 NSCLC = system: HOP-92 NSCLC
PC-3 prostate = system: PC-3 prostate
DU-145 prostate = system: DU-145 prostate
MDA-MB-231 breast = system: MDA-MB-231 breast
MDA-MB-435 = system: MDA-MB-435

Row | SMILES | TGI (MALME-3M melanoma) [µM] | TGI (OVCAR-5 ovarian) [µM] | TGI (SK-MEL-2 melanoma) [µM] | TGI (NCI-H226 lung) [µM] | TGI (SN12C renal) [µM] | TGI (OVCAR-4 ovarian) [µM] | TGI (CCRF-CEM leukemia) [µM] | TGI (RPMI-8226 leukemia) [µM] | TGI (HCT-116 colon) [µM] | TGI (NCI-H23 lung) [µM] | TGI (M14 melanoma) [µM] | TGI (OVCAR-8 ovarian) [µM] | TGI (HOP-62 NSCLC) [µM] | TGI (UACC-62 melanoma) [µM] | TGI (HOP-92 NSCLC) [µM] | TGI (PC-3 prostate) [µM] | TGI (DU-145 prostate) [µM] | TGI (MDA-MB-231 breast) [µM] | TGI (MDA-MB-435) [µM]
1 | COC(=O)C(Cc1nc2ccc(Cl)cc2[nH]c1=O)C(=O)C(=O)Nc1cc(C)ccc1C (stereo unspecified) | > 100 | > 100 | > 100 | > 100 | > 100 | > 100 | > 100 | > 100 | > 100 | > 100 | > 100 | > 100 | > 100 | > 100 | – | – | – | – | –
2 | CCc1cccc(C(C)C)c1NC(=O)/C(=N\NC(N)=O)C(C(=O)OC)c1cnc2ccccc2n1 (stereo unspecified) | 76.4 | > 100 | > 100 | > 100 | > 100 | > 100 | > 100 | – | 86.6 | 57.5 | > 100 | > 100 | > 100 | 62.7 | – | – | – | – | –
3 | CC1OC(n2cc(F)c(=O)[nH]c2=O)CCC1=O (stereo unspecified) | > 100 | > 100 | > 100 | > 100 | > 100 | > 100 | > 100 | > 100 | > 100 | – | > 100 | > 100 | > 100 | > 100 | > 100 | – | – | – | –
4 | CC1(O)CC2C(CC1SC1CC3C(CC1(C)O)C3(C)C)C2(C)C (stereo unspecified) | > 100 | > 100 | > 100 | > 100 | > 100 | 94.1 | 95.9 | > 100 | > 100 | > 100 | > 100 | > 100 | – | – | > 100 | – | – | – | –
5 | O=C(NC(CS)C(=O)O)c1c2ccccc2nc2ccccc12 (stereo unspecified) | 56.8 | > 100 | > 100 | > 100 | > 100 | > 100 | > 100 | > 100 | > 100 | 68.6 | > 100 | > 100 | > 100 | > 100 | > 100 | > 100 | > 100 | > 100 | 16
6 | CN(C)CC1(C)CC/C(=C\c2ccc(Cl)cc2)C1=O (stereo unspecified) | > 100 | > 100 | > 100 | > 100 | > 100 | > 100 | 68.4 | 43.4 | > 100 | > 100 | > 100 | > 100 | > 100 | 64.9 | > 100 | – | – | – | –
7 | CC(=O)OCC12CC(CC1OC(C)=O)c1ccccc12 (stereo unspecified) | > 100 | > 100 | – | > 100 | > 100 | > 100 | > 100 | > 100 | > 100 | > 100 | > 100 | > 100 | > 100 | > 100 | > 100 | – | – | – | –
8 | COc1ccc(OC2(c3cc(OC)ccc3OC)OC(=O)c3ccccc32)cc1 (stereo unspecified) | > 100 | > 100 | > 100 | > 100 | > 100 | > 100 | > 100 | > 100 | > 100 | > 100 | > 100 | > 100 | > 100 | > 100 | > 100 | – | – | – | –
9 | CC(C)CC(=O)CC(C)[C@]1(CCCOCc2ccccc2)C(=O)N2CCC3(C[C@@]24CCC[C@H]41)OCCO3 (stereo partly specified) | – | > 10 | > 10 | > 10 | > 10 | > 10 | > 10 | > 10 | – | > 10 | > 10 | > 10 | > 10 | – | > 10 | > 10 | – | > 10 | > 10
10 | N#C/C(c1nc2ccccc2[nH]1)=c1\s/c(=C/c2ccccc2)c(=O)n1-c1ccccc1 | > 100 | > 100 | > 100 | > 100 | > 100 | > 100 | > 100 | > 100 | > 100 | > 100 | > 100 | > 100 | > 100 | > 100 | > 100 | – | – | – | –
11 | CC(=O)NC(CCCNC(=O)N(C)N=O)C(=O)NCc1ccccc1 (stereo unspecified) | > 100 | > 100 | > 100 | > 100 | > 100 | > 100 | > 100 | > 100 | > 100 | > 100 | > 100 | > 100 | > 100 | > 100 | > 100 | – | – | – | –
12 | CCOc1ccc(N(CC(=O)N2CC(=O)Nc3cc(C)c(C)cc32)C(C)=O)cc1 | > 100 | > 100 | > 100 | > 100 | > 100 | > 100 | > 100 | > 100 | > 100 | > 100 | > 100 | > 100 | > 100 | > 100 | > 100 | – | – | – | –
13 | O=C(O)c1cnc2c(ccc3[nH]cccc32)c1=O | > 100 | > 100 | > 100 | – | > 100 | > 100 | > 100 | – | > 100 | > 100 | > 100 | > 100 | > 100 | > 100 | – | – | – | – | –
14 | O=C1CCC2(c3ccc(Cl)cc3)Nc3ccccc3N12 (stereo unspecified) | > 100 | > 100 | > 100 | > 100 | > 100 | > 100 | – | > 100 | > 100 | > 100 | – | > 100 | > 100 | – | 90.6 | – | – | – | –
15 | Cc1ccc(C(=O)NC2CCCCC2)cc1N=NN(C)C | – | – | > 100 | – | > 100 | > 100 | – | – | > 100 | > 100 | > 100 | > 100 | > 100 | > 100 | > 100 | – | – | – | –
